# Experimental data from ChEMBL document CHEMBL2073967, “Characterisation of cerivastatin as a P-glycoprotein substrate: studies in P-glycoprotein-expressing cell monolayers and mdr1a/b knock-out mice” (Naunyn Schmiedebergs Arch Pharmacol, 2004).
# Target: ATP-dependent translocase ABCB1 (Homo sapiens, UniProt P08183)
# Assay: TP_TRANSPORTER: transepithelial transport in L-MDR1 cells
# Assay type: functional, cell-based
# Conditions: pig
# ATP-dependent translocase ABCB1, sequence (P08183 whole entry): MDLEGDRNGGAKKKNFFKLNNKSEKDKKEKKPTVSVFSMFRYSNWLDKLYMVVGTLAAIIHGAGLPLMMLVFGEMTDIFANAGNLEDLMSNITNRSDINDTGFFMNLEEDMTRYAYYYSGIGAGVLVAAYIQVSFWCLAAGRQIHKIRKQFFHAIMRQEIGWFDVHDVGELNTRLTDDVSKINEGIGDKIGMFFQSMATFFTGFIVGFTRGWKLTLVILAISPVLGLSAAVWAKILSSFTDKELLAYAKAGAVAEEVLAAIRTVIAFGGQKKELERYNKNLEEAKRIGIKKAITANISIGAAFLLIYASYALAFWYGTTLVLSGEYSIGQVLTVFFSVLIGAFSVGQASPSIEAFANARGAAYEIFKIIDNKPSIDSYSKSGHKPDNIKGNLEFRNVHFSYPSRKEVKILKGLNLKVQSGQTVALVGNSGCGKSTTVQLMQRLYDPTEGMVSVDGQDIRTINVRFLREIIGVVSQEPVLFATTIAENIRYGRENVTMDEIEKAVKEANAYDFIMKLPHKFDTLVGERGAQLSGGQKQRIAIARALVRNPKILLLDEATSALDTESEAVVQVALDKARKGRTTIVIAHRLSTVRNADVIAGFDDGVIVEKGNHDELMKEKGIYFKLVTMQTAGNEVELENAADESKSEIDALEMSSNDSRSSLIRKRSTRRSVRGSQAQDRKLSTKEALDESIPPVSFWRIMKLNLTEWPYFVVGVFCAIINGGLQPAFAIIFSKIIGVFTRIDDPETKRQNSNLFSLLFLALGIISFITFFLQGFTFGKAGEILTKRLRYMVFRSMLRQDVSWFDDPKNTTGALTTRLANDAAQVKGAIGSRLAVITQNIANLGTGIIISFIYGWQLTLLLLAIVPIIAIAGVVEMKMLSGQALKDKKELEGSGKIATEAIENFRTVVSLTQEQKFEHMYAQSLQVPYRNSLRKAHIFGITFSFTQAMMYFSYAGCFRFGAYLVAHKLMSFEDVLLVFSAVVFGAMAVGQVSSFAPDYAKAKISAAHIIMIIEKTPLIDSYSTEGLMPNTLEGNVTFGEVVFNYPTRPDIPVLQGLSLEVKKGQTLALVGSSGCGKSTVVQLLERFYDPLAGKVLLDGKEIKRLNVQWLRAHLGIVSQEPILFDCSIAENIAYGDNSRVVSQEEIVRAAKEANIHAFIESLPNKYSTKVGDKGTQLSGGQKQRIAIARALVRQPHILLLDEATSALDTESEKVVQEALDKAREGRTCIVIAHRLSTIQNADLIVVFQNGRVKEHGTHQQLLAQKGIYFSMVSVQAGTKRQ
structure (smiles),measurement,value
COCc1c(C(C)C)nc(C(C)C)c(/C=C/[C@@H](O)C[C@@H](O)CC(=O)O)c1-c1ccc(F)cc1 [CERIVASTATIN],Activity,substrate [+]
